The target of one test is CRBN/DDB1 (Homo sapiens (Human), UniProt Q96SW2). In kind it is binding. Conditions: His tagged CRBN+DDB-DLS7+CXU4, Cy5-labeled Thalidomide probe, one hour incubation; read-out: CRBN HTRF IC50. The method, then: The binding potency was determined using H-TRF assay technology (Perkin Elmer). Compounds were serially diluted in DMSO and 0.2 μL volume was transferred to white 384-well plate.
(In TR-FRET formats the signal depends on donor and acceptor labels being close together.)

A further test concerns the target ERα_LBD(GST) (Homo sapiens (Human), UniProt P03372). Description: IC50 measurements for binding to ERα_LBD (GST), LanthaScreen TR-FRET ERα competitive binding assay. Conditions: 4 nM ERα_LBD(GST), 3 nM Fluormone ES2 Green tracer, 60 min; read-out: ERα HTRF IC50. The method, then: • 1. ERα_LBD(GST) protein: 4 nM • 2. Tb Anti-GST: 2 nM • 3. Fluormone ES2 Green tracer: 3 nM • 4. Incubation time: 60 min • 5. DMSO: 1% • 6. Assay buffer: Adding 1M DTT to Nuclear receptor Buffer K for final 5 mM DTT. • 7. ZPE: 1% DMSO • 8. HPE: 1 μM ARV_471 • 9. LanthaScreen® TR-FRET ERα Competitive Binding Assay (ThermoFisher, #A15887)
• 1) Cherry pick 2 μL 10 mM compound stock to column 1 of a 384 intermediate plate • 2) Add 18 μL DMSO to column 1 to dilute compound to 1 mM. • 3) Transfer 10 μL 1 mM compound to column 1 of a LDV plate. • 4) Add 6 μl DMSO to column 2-10 of the LDV plate. • 5) Compounds undergo 3-fold serial dilution (3 μL+6 μL) in DMSO. • 6) Transfer 120 nL compound solution to assay plate. • ZPE: 120 nL 100% DMSO
Prepare complete nuclear receptor buffer K by adding 1 M DTT to nuclear receptor buffer K for a final concentration of 5 mM DTT. Complete nuclear receptor buffer K must be prepared fresh daily. Prepare 2X protein solution using complete nuclear receptor buffer K containing 8 nM ERα_LBD(GST) and 4 nM Tb Anti-GST. Then, prepare 2× Fluormone ES2 Green tracer (6 nM) using complete nuclear receptor buffer K. Add 6 μL 2× Fluormone ES2 green tracer into a compound plate (PerkinElmer 6008289) by dragonfly with one-tips-addition. Subsequently, add 6 μL 2× protein solution into the plate. Briefly and gently mix the 384-well plate on a plate shaker and incubate at room temperature protected from light for 60 min. The plate is sealed with a cover to minimize evaporation. Read the plate at wavelengths of 520 nm and 495 nm. Calculate the TR-FRET ratio by dividing the emission signal at 520 nm by the emission signal at 495 nm. Generate a binding curve by plotting the emission ratio vs. the log [ligand]. To determine the IC50 value, fit the data using XL-fit for a sigmoidal dose-response.

A further test concerns the target ER in MCF-7 cells (Homo sapiens (Human), UniProt P03372). Description: In-cell western (ICW) ER degradation assay in MCF-7 cells (Compounds A1-A70). Particulars: MCF-7 cells, 16 hrs treatment; for DC50: ER degradation, 0.02 to 300 nM, read-out: MCF7 ICW DC50; for Dmax: MCF7, maximal ER degradation, read-out: MCF7 ICW Dmax (%); for MCF7 ICW Dmax (%): maximal ER degradation. In kind it is cell-based.

The next test concerns the target ER in T47D cells (Homo sapiens (Human), UniProt P03372). Description: In-cell western (ICW) ER degradation assay in T47D cells (Compounds A1-A70). In kind it is cell-based. Conditions: T47D cells, 16 hrs treatment; for DC50: ER degradation, 0.02 to 300 nM; for T47D ICW Dmax (%) / Dmax: maximal ER degradation; for Dmax: read-out: T47D ICW Dmax (%).

Like-named read-outs stand apart in the source and are kept apart here.

ER in MCF-7 cells, sequence (P03372 whole entry): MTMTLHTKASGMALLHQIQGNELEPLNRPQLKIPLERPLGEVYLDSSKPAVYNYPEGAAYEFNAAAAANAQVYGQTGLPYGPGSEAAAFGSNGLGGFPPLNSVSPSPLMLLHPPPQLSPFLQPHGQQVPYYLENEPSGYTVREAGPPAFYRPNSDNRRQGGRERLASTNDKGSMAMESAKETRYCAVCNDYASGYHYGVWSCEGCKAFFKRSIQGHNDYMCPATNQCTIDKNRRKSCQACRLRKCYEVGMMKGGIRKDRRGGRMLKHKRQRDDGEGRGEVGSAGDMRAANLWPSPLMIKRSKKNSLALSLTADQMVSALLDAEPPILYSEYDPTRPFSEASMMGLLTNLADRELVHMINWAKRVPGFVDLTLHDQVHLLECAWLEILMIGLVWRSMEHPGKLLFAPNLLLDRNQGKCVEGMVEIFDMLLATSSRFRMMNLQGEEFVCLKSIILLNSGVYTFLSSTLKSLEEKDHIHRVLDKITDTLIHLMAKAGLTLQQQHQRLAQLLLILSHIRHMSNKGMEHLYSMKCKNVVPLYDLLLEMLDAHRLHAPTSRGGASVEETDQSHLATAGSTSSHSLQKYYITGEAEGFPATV
ER in T47D cells, sequence (P03372 whole entry): as above
CRBN/DDB1, sequence (Q96SW2 whole entry): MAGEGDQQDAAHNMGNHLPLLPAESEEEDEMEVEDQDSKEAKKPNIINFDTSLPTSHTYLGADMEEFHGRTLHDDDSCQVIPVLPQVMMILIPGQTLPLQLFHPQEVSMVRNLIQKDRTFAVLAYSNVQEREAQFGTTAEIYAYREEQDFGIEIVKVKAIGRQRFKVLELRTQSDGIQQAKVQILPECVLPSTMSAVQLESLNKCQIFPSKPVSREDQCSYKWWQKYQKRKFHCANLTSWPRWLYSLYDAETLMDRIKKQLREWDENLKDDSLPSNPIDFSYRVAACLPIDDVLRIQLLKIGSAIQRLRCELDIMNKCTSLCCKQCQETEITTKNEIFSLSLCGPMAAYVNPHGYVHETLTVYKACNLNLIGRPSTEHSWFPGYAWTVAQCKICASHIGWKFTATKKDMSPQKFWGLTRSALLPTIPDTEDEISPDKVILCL
CRBN/DDB1, sequence (Q16531 whole entry partner): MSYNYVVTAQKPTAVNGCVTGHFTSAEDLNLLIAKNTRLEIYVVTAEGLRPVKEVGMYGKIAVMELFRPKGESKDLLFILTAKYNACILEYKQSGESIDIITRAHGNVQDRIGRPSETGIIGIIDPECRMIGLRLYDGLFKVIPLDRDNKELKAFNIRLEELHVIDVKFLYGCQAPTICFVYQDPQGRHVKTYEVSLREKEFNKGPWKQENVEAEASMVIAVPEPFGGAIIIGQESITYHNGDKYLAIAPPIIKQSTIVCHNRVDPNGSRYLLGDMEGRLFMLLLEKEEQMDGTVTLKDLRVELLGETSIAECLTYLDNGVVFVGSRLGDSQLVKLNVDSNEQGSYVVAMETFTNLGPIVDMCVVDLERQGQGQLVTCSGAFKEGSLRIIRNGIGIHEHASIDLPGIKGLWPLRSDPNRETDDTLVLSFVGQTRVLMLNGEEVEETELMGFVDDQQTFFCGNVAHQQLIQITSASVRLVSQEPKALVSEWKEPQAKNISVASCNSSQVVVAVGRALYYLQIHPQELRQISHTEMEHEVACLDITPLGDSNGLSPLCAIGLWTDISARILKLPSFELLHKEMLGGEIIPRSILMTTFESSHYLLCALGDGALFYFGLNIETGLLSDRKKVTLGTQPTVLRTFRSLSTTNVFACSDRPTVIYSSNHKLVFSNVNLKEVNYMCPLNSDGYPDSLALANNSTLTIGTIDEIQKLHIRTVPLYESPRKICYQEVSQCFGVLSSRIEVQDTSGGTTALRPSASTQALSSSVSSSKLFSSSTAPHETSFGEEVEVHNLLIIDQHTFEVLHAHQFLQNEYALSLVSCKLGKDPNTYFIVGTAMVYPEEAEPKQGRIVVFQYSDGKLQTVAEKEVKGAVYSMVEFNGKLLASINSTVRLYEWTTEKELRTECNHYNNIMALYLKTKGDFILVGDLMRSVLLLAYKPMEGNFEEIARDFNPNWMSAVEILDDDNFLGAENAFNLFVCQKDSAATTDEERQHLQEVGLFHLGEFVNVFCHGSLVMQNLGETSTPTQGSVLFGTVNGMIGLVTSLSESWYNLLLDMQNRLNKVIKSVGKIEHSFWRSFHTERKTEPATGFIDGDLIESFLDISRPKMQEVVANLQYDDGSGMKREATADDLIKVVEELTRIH
ERα_LBD(GST), sequence (P03372 311-547): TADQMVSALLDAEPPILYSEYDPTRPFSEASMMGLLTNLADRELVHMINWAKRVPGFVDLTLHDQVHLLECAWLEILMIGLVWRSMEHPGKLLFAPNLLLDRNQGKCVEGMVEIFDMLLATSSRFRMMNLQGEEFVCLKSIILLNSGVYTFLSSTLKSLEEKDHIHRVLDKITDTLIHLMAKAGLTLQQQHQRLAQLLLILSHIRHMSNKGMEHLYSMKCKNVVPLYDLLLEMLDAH

As to `COc1cc(N2CCC(CN3CCN4c5ccc6c(c5OC[C@H]4C3)CN([C@H]3CCC(=O)NC3=O)C6=O)CC2)ccc1[C@@H]1c2[nH]c3ccccc3c2C[C@@H](C)N1CC(F)F` [Compound A19, (S)-3-((R)-7-((1-(4-((1R,3R)-2-(2,2-difluoroethyl)-3-methyl-2,3,4,9-tetrahydro-1H-pyrido[3,4-b]indol-1-yl)-3-methoxyphenyl)piperidin-4-yl)methyl)-1-oxo-1,3,5,5a,6,7,8,9-octahydro-2H-pyrazino[1′,2′:4,5][1,4]oxazino[2,3-c]isoindol-2-yl)piperidine-2,6-dione], at CRBN/DDB1, the 50% inhibitory concentration (IC50) lay in the range of 0.05 to 0.5 µM. Further, at ERα_LBD(GST), the IC50 is below 0.01 µM. Also, on ER in MCF-7 cells, the half-maximal degradation concentration (DC50) is 0.001 to 0.01 µM and the greatest degradation seen (Dmax) lay in the range of 50 to 75%.

For `COc1cc(N2CCC(CN3CCN4c5cc6c(cc5OC[C@@H]4C3)C(=O)N([C@H]3CCC(=O)NC3=O)C6)CC2)ccc1[C@@H]1c2[nH]c3ccccc3c2C[C@@H](C)N1CC(F)F` [Compound A28, (S)-3-((S)-3-((1-(4-((1R,3R)-2-(2,2-difluoroethyl)-3-methyl-2,3,4,9-tetrahydro-1H-pyrido[3,4-b]indol-1-yl)-3-methoxyphenyl)piperidin-4-yl)methyl)-8-oxo-1,2,3,4,4a,5,8,10-octahydro-9H-pyrazino[1′,2′:4,5][1,4]oxazino[2,3-f]isoindol-9-yl)piperidine-2,6-dione], the half-maximal inhibitory concentration (IC50) at CRBN/DDB1 lay in the range of 0.05 to 0.5 µM. Besides, the IC50 on ERα_LBD(GST) was below 0.01 µM. Also, at ER in MCF-7 cells, the DC50 is below 0.001 µM and the “MCF7 ICW Dmax (%)” value is “C (“C”: 25%-50%)”. Further, on ER in T47D cells, the DC50 is below 0.001 µM; the “T47D ICW Dmax (%)” value is “B (“B”: >50% and <75%)”.

Turning to `COc1cc(N2CCC(CN3CCN4c5cc6c(cc5OC[C@@H]4C3)C(=O)N([C@H]3CCC(=O)NC3=O)C6)CC2)ccc1[C@@H]1c2[nH]c3ccccc3c2C[C@@H](C)N1CC(F)F` [Compound A29, (S)-3-((S)-3-((1-(4-((1R,3R)-2-(2,2-difluoroethyl)-3-methyl-2,3,4,9-tetrahydro-1H-pyrido[3,4-b]indol-1-yl)-3-methoxyphenyl)piperidin-4-yl)methyl)-8-oxo-1,2,3,4,4a,5,8,10-octahydro-9H-pyrazino[1′,2′:4,5][1,4]oxazino[2,3-f]isoindol-9-yl)piperidine-2,6-dione], the IC50 on CRBN/DDB1 is 0.5 to 5 µM. The IC50 on ERα_LBD(GST) was below 0.01 µM. Also, at ER in MCF-7 cells, the DC50 is below 0.001 µM; the “MCF7 ICW Dmax (%)” value is “B (“B”: >50% and <75%)”. In addition, on ER in T47D cells, the 50% degradation concentration (DC50) is below 0.001 µM and the “T47D ICW Dmax (%)” value is “A (“A”: >=75%)”.

Take `C[C@@H]1Cc2c([nH]c3ccccc23)[C@@H](c2cnc(N3CCC(CN4CCC5(CC4)COc4cc6c(cc45)CN(C4CCC(=O)NC4=O)C6=O)CC3)nc2)N1CC(F)(F)CO` (stereo partly drawn) [Compound A36, 3-(1′-((1-(5-((1R,3R)-2-(2,2-difluoro-3-hydroxypropyl)-3-methyl-2,3,4,9-tetrahydro-1H-pyrido[3,4-b]indol-1-yl)pyrimidin-2-yl)piperidin-4-yl)methyl)-7-oxo-5,7-dihydro-2H,6H-spiro[furo[2,3-f]isoindole-3,4′-piperidin]-6-yl) piperidine-2,6-dione]: the half-inhibitory concentration (IC50) on CRBN/DDB1 was 0.05 to 0.5 µM; on ERα_LBD(GST), below 0.01 µM. Moreover, the DC50 at ER in MCF-7 cells is 0.001 to 0.01 µM; on ER in T47D cells, below 0.001 µM. Moreover, the Dmax on ER in MCF-7 cells was in the range of 25 to 50%; at ER in T47D cells, 50 to 75%.

Take `COc1cc(N2CCC(CN3CCN4c5ccc6c(c5OC[C@H]4C3)CN([C@@H]3CCC(=O)NC3=O)C6=O)CC2)ccc1[C@@H]1c2[nH]c3ccccc3c2C[C@@H](C)N1CC(F)F` [Compound A37, (R)-3-((R)-7-((1-(4-((1R,3R)-2-(2,2-difluoroethyl)-3-methyl-2,3,4,9-tetrahydro-1H-pyrido[3,4-b]indol-1-yl)-3-methoxyphenyl)piperidin-4-yl)methyl)-1-oxo-1,3,5,5a,6,7,8,9-octahydro-2H-pyrazino[1′,2′:4,5][1,4]oxazino[2,3-e]isoindol-2-yl)piperidine-2,6-dione]: the IC50 was above 5 µM on CRBN/DDB1 and below 0.01 µM on ERα_LBD(GST). In addition, the DC50 on ER in MCF-7 cells and on ER in T47D cells was below 0.001 µM in each case. Further, the values for the Dmax on ER in MCF-7 cells and at ER in T47D cells (T47D) were 50 to 75% and above 75%, respectively.

In the case of `COc1cc(N2CCC(CN3CCN4c5ccc6c(c5OC[C@@H]4C3)CN([C@H]3CCC(=O)NC3=O)C6=O)CC2)ccc1[C@@H]1c2[nH]c3ccccc3c2C[C@@H](C)N1CC(F)F` [Compound A45, (S)-3-((S)-7-((1-(4-((1R,3R)-2-(2,2-difluoroethyl)-3-methyl-2,3,4,9-tetrahydro-1H-pyrido[3,4-b]indol-1-yl)-3-methoxyphenyl)piperidin-4-yl)methyl)-1-oxo-1,3,5,5a,6,7,8,9-octahydro-2H-pyrazino[1′,2′:4,5][1,4]oxazino[2,3-e]isoindol-2-yl)piperidine-2,6-dione], the figures for the concentration for half-maximal inhibition (IC50) at CRBN/DDB1 and at ERα_LBD(GST) were above 5 µM and below 0.01 µM, respectively. Moreover, the half-maximal degradation concentration (DC50) on ER in MCF-7 cells and on ER in T47D cells was below 0.001 µM throughout. The “MCF7 ICW Dmax (%)” value on ER in MCF-7 cells was “A (“A”: >=75%)”. Further, the greatest degradation seen (Dmax) at ER in T47D cells (T47D) was above 75%.

Consider `COc1cc(N2CCC(CN3CCN(c4ccc(C(=O)N[C@H]5CCC(=O)NC5=O)nc4)CC3)CC2)ccc1[C@@H]1c2[nH]c3ccccc3c2C[C@@H](C)N1CC(F)F` [Compound A55, 5-(4-((1-(4-((1R,3R)-2-(2,2-difluoroethyl)-3-methyl-2,3,4,9-tetrahydro-1H-pyrido[3,4-b]indol-1-yl)-3-methoxyphenyl)piperidin-4-yl)methyl)piperazin-1-yl)-N—((S)-2,6-dioxopiperidin-3-yl)picolinamide], for which the IC50 was above 5 µM on CRBN/DDB1 and below 0.01 µM on ERα_LBD(GST). Moreover, on ER in MCF-7 cells, the DC50 is below 0.001 µM.

Consider `C[C@@H]1Cc2c([nH]c3ccccc23)[C@@H](c2cnc(N3CCC4(CC3)C[C@@H](CN3CCN5c6ccc(C(=O)N[C@H]7CCC(=O)NC7=O)nc6OC[C@H]5C3)CO4)nc2)N1CC(F)F` [Compound A63, (4aR)-3-((8-(5-((1R,3R)-2-(2,2-difluoroethyl)-3-methyl-2,3,4,9-tetrahydro-1H-pyrido[3,4-b]indol-1-yl)pyrimidin-2-yl)-1-oxa-8-azaspiro[4.5]decan-3-yl)methyl)-N—((S)-2,6-dioxopiperidin-3-yl)-1,2,3,4,4a,5-hexahydropyrazino[1,2-d]pyrido[2,3-b][1,4]oxazine-8-carboxamide], for which the IC50 at CRBN/DDB1 was 0.5 to 5 µM; on ERα_LBD(GST), at least 0.01 µM. The DC50 at ER in MCF-7 cells and at ER in T47D cells was 0.001 to 0.01 µM in each case. In addition, the greatest degradation seen (Dmax) on ER in MCF-7 cells and at ER in T47D cells (T47D) was 50 to 75% each time.

Consider `C[C@H]1Cc2c([nH]c3ccccc23)[C@H](c2cnc(N3CCC4(CC3)C[C@H](CN3CCN5c6cc7c(cc6OC[C@@H]5C3)C(=O)N([C@@H]3CCC(=O)NC3=O)C7)CO4)nc2)N1CC(F)F` [Compound A69, (R)-3-((S)-3-(((R)-8-(5-((1S,3S)-2-(2,2-difluoroethyl)-3-methyl-2,3,4,9-tetrahydro-1H-pyrido[3,4-b]indol-1-yl)pyrimidin-2-yl)-1-oxa-8-azaspiro[4.5]decan-3-yl)methyl)-8-oxo-1,2,3,4,4a,5,8,10-octahydro-9H-pyrazino[1′,2′:4,5][1,4]oxazino[2,3-f]isoindol-9-yl)piperidine-2,6-dione], for which the IC50 was 0.05 to 0.5 µM at CRBN/DDB1 and at least 0.01 µM at ERα_LBD(GST). Moreover, the DC50 on ER in MCF-7 cells and on ER in T47D cells was below 0.001 µM each time. The Dmax on ER in MCF-7 cells and at ER in T47D cells (T47D) was above 75% throughout.

As usually defined, the IC50 is the point on the concentration scale where inhibition reaches its midpoint. Usually DC50 stands for the midpoint of the concentration-degradation curve. Broadly, the Dmax is the largest share of the target that was removed.

The values above are taken from patent publication US20260007681A1, “INDOLE DERIVATIVES AS ESTROGEN RECEPTOR DEGRADERS” (REGENTS OF THE UNIVERSITY OF MICHIGAN, priority 2022, published 2026).
